Measurements: patent publication US11180510B2, “Xanthine derivatives and uses thereof as inhibitors of bromodomains of BET proteins” (Centre national de la recherche scientifique, priority 2017, dated 2021)
Like-named read-outs stand apart in the source and are kept apart here.

Tests used:
Brd2(BD1) = target: T1, Brd2(BD1) (Homo sapiens, UniProt P25440); experiment: HTRF BET selectivity profile, Brd2(BD1); type: binding; conditions: for IC50: read-out: Brd2(BD1) IC50; for Ratio 2-1 vs 2-2: selectivity Brd2(BD1) vs Brd2(BD2), HTRF IC50
T1 construct: GST tagged bromodomain proteins were purchased from BPS Bioscience; purchased BPS Bioscience
Experimental: (§1) HTRF assays were performed in white 384 Well Small Volume™ HiBase Polystyrene Microplates (Greiner) with a total working volume of 20 μL. Compounds were dispensed, with 100 nL per well (0.5% final DMSO), from a concentration stock of 10 mM in 100% DMSO and with serial DMSO dilutions, using an Echo® 550 robot from the Access Labcyte platform (Labcyte) and based on the transfer of liquid by acoustic wave. Then, 19.5 μL of buffer is added, using a Multidrop Combi (Thermo Fisher Scientific). […] All HTRF reagents (donor and acceptor) were purchased from CisBio Bioassays and reconstituted according to the supplier protocols. The peptide was purchased from Genic Bio Synthetic. The BRD4(1) protein was produced and purified in the laboratory.
(§2) Percentage of inhibition was calculated using the following equation: % inhibition=[(compound signal)−(min signal)]/[(max signal)−(min signal)]*100, where ‘max signal’ is the signal ratio with the compound vehicle alone (DMSO) and ‘min signal’ the signal ratio without peptide.
(§3) Selectivity profiles of bromodomain inhibitors were performed as described in HTRF screen section. […] HTRF detection reagents (EPIgeneous™ Binding Domain kits) were purchased from Cisbio Bioassays and used according to supplier's protocol. GST tagged bromodomain proteins were purchased from BPS Bioscience and histone peptide from Genic Bio Synthetic.

Brd4(BD2) = target: T2, Brd4(BD2) (Homo sapiens, UniProt O60885); experiment: HTRF BET selectivity profile, Brd4(BD2); type: binding
T2 construct: GST tagged bromodomain proteins were purchased from BPS Bioscience; purchased BPS Bioscience
Experimental: (§4) HTRF assays were performed in white 384 Well Small Volume™ HiBase Polystyrene Microplates (Greiner) with a total working volume of 20 μL. Compounds were dispensed, with 100 nL per well (0.5% final DMSO), from a concentration stock of 10 mM in 100% DMSO and with serial DMSO dilutions, using an Echo® 550 robot from the Access Labcyte platform (Labcyte) and based on the transfer of liquid by acoustic wave. Then, 19.5 μL of buffer is added, using a Multidrop Combi (Thermo Fisher Scientific). Finally, for each assay, 200 nL of master mix (protein+donor+acceptor) and 200 nL of peptide Is added in the assay wells according to the final concentration and buffer described in Table 3, using the Echo® 550 robot (Labcyte). The IC50 measurements were performed in triplicates (Table 2 and 3). All HTRF reagents (donor and acceptor) were purchased from CisBio Bioassays and reconstituted according to the supplier protocols. The peptide was purchased from Genic Bio Synthetic. The BRD4(1) protein was produced and purified in the laboratory. HTRF signals were measured, after a final incubation (3 h or 6 h or overnight at room temperature or 4° C., according to the bromodomain), using a PHERAstar FS (BMG Labtech) with an excitation filter at 337 nm and fluorescence wavelength measurement at 620 and 665 nm, an integration delay of 60 μs and an integration time of 500 μs. Results were analyzed with a two-wavelengths signal ratio: [intensity (665 nm)/intensity (620 nm)]*104.
as §2, §3

Brdt(BD1) = target: T3, Brdt(BD1) (Homo sapiens, UniProt Q58F21); experiment: HTRF BET selectivity profile, Brdt(BD1); type: binding
T3 construct: GST tagged bromodomain proteins were purchased from BPS Bioscience; purchased BPS Bioscience
Experimental: as §4, §2, §3

BRD4(BD1) [1] = target: T4, BRD4(BD1) (Homo sapiens, UniProt O60885); experiment: HTRF assay, BRD4(BD1)/histone peptide interaction; type: binding; design: made in house; conditions: for IC50: HTRF; for Ratio 4-1 vs 4-2: selectivity Brd4(BD1) vs Brd4(BD2), HTRF IC50
Brd3(BD2) = target: T5, Brd3(BD2) (Homo sapiens, UniProt Q15059); experiment: HTRF BET selectivity profile, Brd3(BD2); type: binding
T5 construct: GST tagged bromodomain proteins were purchased from BPS Bioscience; purchased BPS Bioscience
Experimental: as §4, §2, §3

Brd2(BD2) = target: T6, Brd2(BD2) (Homo sapiens, UniProt P25440); experiment: HTRF BET selectivity profile, Brd2(BD2); type: binding; conditions: read-out: Brd2(BD2) IC50
T6 construct: GST tagged bromodomain proteins were purchased from BPS Bioscience; purchased BPS Bioscience
Experimental: as §1, §2, §3

Molm14 cells = experiment: Cell Titer-Glo cell viability assay, Molm14; type: cell-based; conditions: Homo sapiens, MOLM-14, 72 h, mean of three experiments, NA = IC50 > maximal concentration used
Experimental: (§5) The human leukemia cell line Jurkat (ATCC® TIB-152) and Molm14 was maintained in RPMI-1640 medium or MEMα, respectively and supplemented both with 10% FBS at 37° C. and 5% CO2.
(§6) In antiproliferative assays, compounds were assayed for their growth inhibiting activity towards the described cancer cell lines using the Cell Titer-Glo Luminescent Cell Viability Assay as described by the manufacturer (Promega Corporation). Briefly, 10.000 cells were plated onto 96 well-plates (white with clear bottom (3610, Corning Costar)) in 90 μL media per well immediately before assay. 10 μL of compounds were added at different concentrations (ranging from 50 μM to 6 nM) to each well and cell cultures were incubated 37° C. during 72 h. Vehicle (DMSO) was used as negative control, JQ1 (a pan-BET inhibitor) was used as positive control and all compounds were tested in constant percentage of DMSO (1%). After addition of 50 μL Cell Titer-GLO, shaking 2 minutes and incubating at room temperature 10 minutes, the Luminescence was measured using a Centro luminometer LB960 (Berthold). Dose-response curves were generated and effective dose 50 values (EC50) were calculated using non-linear regression analysis (Graph Pad Prism).

Jurkat cells = experiment: Cell Titer-Glo cell viability assay, Jurkat; type: cell-based; conditions: Homo sapiens, 72 h, mean of three experiments, NA = IC50 > maximal concentration used
Experimental: as §5, §6

Brd3(BD1) = Brd3(BD1) (Homo sapiens, UniProt Q15059); experiment: HTRF BET selectivity profile, Brd3(BD1); type: binding; design: GST tagged bromodomain proteins were purchased from BPS Bioscience; purchased BPS Bioscience; conditions: for Ratio 3-1 vs 3-2: selectivity Brd3(BD1) vs Brd3(BD2), HTRF IC50
Experimental: as §1, §2, §3

BRD4(BD1) [2] = target: T4, BRD4(BD1); experiment: Isothermal Titration Calorimetry; type: binding; conditions: ITC; read-out: Binding affinity (Kd) to BRD4(1) by Isothermal Titration Calorimetry
Experimental: FIG. 1. Isothermal Titration Calorimetry (ITC) of 43c. Thermogram (top) and non-linear least squares fit model of the integrated data (bottom) at 15° C. of Brd4 (BD1) […] as a function of the molar ratio of ligand to the protein.
ITC was used to evaluate the thermodynamics parameters of the binding between BRD4 (BD1) and the selected compounds. Titrations were carried out on a MicroCal ITC200 microcalorimeter (GE Healthcare, Piscataway, N.J.). Each experiment was designed using a titrant concentration (protein in the syringe generally between 100 and 400 μM) set 10 to 15 times the analyte concentration (compound in the cell generally between 10 and 40 μM) and using 13 injections at 25° C. A first small injection (generally 0.2 μL) was included in the titration protocol in order to remove air bubbles trapped in the syringe prior titration. Raw data were scaled after setting the zero to the titration saturation heat value. Integrated raw ITC data were fitted to a one site non-linear least squares fit model using the MicroCal Origin plugin as implemented in Origin 7 (Origin Lab). Finally, ΔG and TΔS values were calculated from the fitted ΔH and KA values using the equations ΔG=−R.T.inKA and ΔG=ΔH−TΔS.

[3] = mean of three experiments, NA = IC50 > 50 μM, read-out: Brd4(8D1) IC50
[4] = triplicates, NA = IC50 > maximal concentration of compound used

T5 sequence (Q15059 306-415 limits assumed): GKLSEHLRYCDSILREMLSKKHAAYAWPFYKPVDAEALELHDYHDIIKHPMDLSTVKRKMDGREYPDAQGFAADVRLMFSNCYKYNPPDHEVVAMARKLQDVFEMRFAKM
T6 sequence (P25440 344-453 limits assumed): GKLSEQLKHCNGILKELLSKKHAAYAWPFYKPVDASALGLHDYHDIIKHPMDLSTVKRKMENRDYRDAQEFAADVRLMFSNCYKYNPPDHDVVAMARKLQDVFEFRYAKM
Brd3(BD1), sequence (Q15059 34-140 limits assumed): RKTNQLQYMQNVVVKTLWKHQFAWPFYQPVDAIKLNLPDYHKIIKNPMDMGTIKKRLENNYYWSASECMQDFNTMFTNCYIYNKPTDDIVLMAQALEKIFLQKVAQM
T1 sequence (P25440 74-180 limits assumed): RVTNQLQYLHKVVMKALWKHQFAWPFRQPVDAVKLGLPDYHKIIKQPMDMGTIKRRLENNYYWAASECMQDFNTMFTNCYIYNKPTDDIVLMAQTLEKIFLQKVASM

Row | SMILES | IC50 (Brd2(BD1)) [µM] | Ratio 2-1 vs 2-2 (Brd2(BD1)) | IC50 (Brd4(BD2)) [µM] | IC50 (Brdt(BD1)) [µM] | IC50 (BRD4(BD1) [1]; [3]) [µM] | IC50 (BRD4(BD1) [1]; [4]) [µM] | Ratio 4-1 vs 4-2 (BRD4(BD1) [1]) | IC50 (Brd3(BD2)) [µM] | IC50 (Brd2(BD2)) [µM] | IC50 (Molm14 cells) [µM] | IC50 (Jurkat cells) [µM] | IC50 (Brd3(BD1)) [µM] | Ratio 3-1 vs 3-2 (Brd3(BD1)) | Kd (BRD4(BD1) [2]) [µM]
1 | CCn1cnc2c1c(=O)[nH]c(=O)n2Cc1ccc(CNS(=O)(=O)c2ccn(-c3ccccc3)n2)cc1 [Compound 24b] | 3.33 | 2 | 5.85 | 6.26 | 0.846 | 0.846 | 7 | 12 | 6.05 | 10.2 | 14.2 | 1 | 12 | –
2 | CCn1cnc2c1c(=O)[nH]c(=O)n2Cc1ccc(CNS(=O)(=O)c2ccc(-c3cc(C)n[nH]3)s2)cc1 [Compound 25a] | 2.1 | 2 | 4.05 | 3.47 | 0.284 | 0.284 | 14 | 3.17 | 3.2 | 9.9 | 13.5 | 0.507 | 6 | –
3 | CCn1cnc2c1c(=O)[nH]c(=O)n2Cc1ccc(CNS(=O)(=O)c2cc3ccccc3s2)cc1 [Compound 25b] | 1.38 | 8 | 12.8 | 7.44 | 0.779 | 0.779 | 16 | 12.4 | 10.5 | 11.1 | 5.2 | 1.54 | 8 | –
4 | CCn1cnc2c1c(=O)[nH]c(=O)n2Cc1ccc(CNS(=O)(=O)c2ccc3scnc3c2)cc1 [Compound 25c] | 4.18 | 7 | 21.2 | 14 | 1.59 | 1.6 | 13 | 17.4 | 23.5 | 14.8 | 6.1 | 4.77 | 4 | –
5 | CCn1cnc2c1c(=O)[nH]c(=O)n2Cc1cc(OC)c(CNS(=O)(=O)c2ccc3c(c2)CCCC(=O)N3)cc1OC [Compound 32a] | – | – | – | – | – | 13 | – | – | – | 30.2 | 23.3 | – | – | –
6 | CCCCc1c(C)nc2nc(SCc3nc4c(c(=O)[nH]c(=O)n4Cc4ccc(CNS(=O)(=O)c5ccc6c(c5)CCCC(=O)N6)cc4)n3CC)nn2c1C [Compound 32c, N-(4-((8-(((6-butyl-5,7-dimethyl-[1,2,4]triazolo[1,5-a]pyrimidin-2-yl)thio)methyl)-7-ethyl-2,6-dioxo-1,2,6,7-tetrahydro-3H-purin-3-yl)methyl)benzyl)-2-oxo-2,3,4,5-tetrahydro-1H-benzo[b]azepine-7-sulfonamide] | 4.67 | 0.7 | 9.15 | 18.9 | 1.08 | 1.1 | 9 | 4.16 | 3.36 | – | 32.5 | 4.43 | 1 | 2.1
7 | CCn1cnc2c1c(=O)[nH]c(=O)n2Cc1ccc(CNS(=O)(=O)c2ccc(Oc3cncc(C)n3)cc2)cc1 [Compound 42c] | – | – | – | – | – | 0.75 | – | – | – | 12.2 | – | – | – | –
8 | CCn1cnc2c1c(=O)[nH]c(=O)n2Cc1ccc(CNS(=O)(=O)c2ccc(C(=O)N3CCOCC3)cc2)cc1 [Compound 44b] | 0.352 | 6 | 4.24 | 0.397 | 0.123 | 0.123 | 34 | 3.32 | 1.96 | 23.7 | – | 0.23 | 14 | 0.17
9 | CCn1cnc2c1c(=O)[nH]c(=O)n2Cc1ccc(CNS(=O)(=O)c2ccc(Oc3ccc(C(F)(F)F)cc3)cc2)cc1 [Compound 44c] | – | – | – | – | – | 0.522 | – | – | – | 9.3 | – | – | – | –
